The results in this text go back to patent US8067395B2, “Inhibitors of tyrosine kinases and uses thereof” (Pharmacyclics, Inc., priority 2006, dated 2011).

This test concerns the target Btk (Homo sapiens, UniProt Q06187). As to the kind of experiment: Btk TR-FRET kinase inhibition assay. The format is biochemical. To be noted: pH 7.4, ATP at the Km for the kinase, 1 μM peptide substrate, [Btk]total=0.5 nM, read-out: Btk-TRFRET (Ki). How it is done:
Suitable in vitro assays for measuring kinase activity and the inhibition thereof by compounds are known (e.g., see Kuzmic et al. Anal. Biochem. 2000, 286, 45-50).
The following protocol represents an assay for determination of inhibition of kinases under physiological conditions (pH 7.4). Kinase activity was determined using a time-resolved fluorescence resonance energy transfer (TR-FRET) methodology. Measurements were performed in a reaction volume of 50 μL using 96-well assay plates. Kinase enzyme, inhibitor, ATP (at the Km for the kinase), and 1 μM peptide substrate (Biotin-AVLESEEELYSSARQ-NH2) were incubated in a reaction buffer composed of 20 mM Tris, 50 mM NaCl, MgCl2 (5-25 mM depending on the kinase), 1 mM DTT, 0.1 mM EDTA, 0.01% bovine serum albumin, 0.005% Tween-20, and 10% DMSO at pH 7.4 for one hour. The reaction was quenched by the addition of 1.2 equivalents of EDTA (relative to Mg^2+) in 25 μL of 1× Lance buffer (Perkin-Elmer). Streptavidin-APC (Perkin-Elmer) and Eu-labeled p-Tyr100 antibody (Perkin-Elmer) in 1× Lance buffer were added in a 25 μL volume to give final concentrations of 100 nM and 2.5 nM, respectively, and the mixture was allowed to incubate for one hour. The TR-FRET signal was measured on a multimode plate reader with an excitation wavelength of 330 nm and detection wavelengths of 615 nm and 665 nm. Activity was determined by the ratio of the fluorescence at 665 nm to that at 615 nm. For each compound, enzyme activity was measured at various concentrations of compound. Negative control reactions were performed in the absence of inhibitor in replicates of six, and two no-enzyme controls were used to determine baseline fluorescence levels. Inhibition constants were obtained using the program BatchKi (Kuzmic et al. Anal. Biochem. 2000, 286, 45-50). IC50s were obtained according to this equation: IC50={Ki(app)/(1+[ATP]/Km^ATP)}+[E]total/2; for all kinases, [ATP]=Km^ATP, [Btk]total=0.5 nM and [Lck]total=6 nM.
(In general: TR-FRET usually uses a lanthanide donor and a delayed reading to cut background.)

Each structure is given as a SMILES string.

Chain of Btk (Q06187 whole entry): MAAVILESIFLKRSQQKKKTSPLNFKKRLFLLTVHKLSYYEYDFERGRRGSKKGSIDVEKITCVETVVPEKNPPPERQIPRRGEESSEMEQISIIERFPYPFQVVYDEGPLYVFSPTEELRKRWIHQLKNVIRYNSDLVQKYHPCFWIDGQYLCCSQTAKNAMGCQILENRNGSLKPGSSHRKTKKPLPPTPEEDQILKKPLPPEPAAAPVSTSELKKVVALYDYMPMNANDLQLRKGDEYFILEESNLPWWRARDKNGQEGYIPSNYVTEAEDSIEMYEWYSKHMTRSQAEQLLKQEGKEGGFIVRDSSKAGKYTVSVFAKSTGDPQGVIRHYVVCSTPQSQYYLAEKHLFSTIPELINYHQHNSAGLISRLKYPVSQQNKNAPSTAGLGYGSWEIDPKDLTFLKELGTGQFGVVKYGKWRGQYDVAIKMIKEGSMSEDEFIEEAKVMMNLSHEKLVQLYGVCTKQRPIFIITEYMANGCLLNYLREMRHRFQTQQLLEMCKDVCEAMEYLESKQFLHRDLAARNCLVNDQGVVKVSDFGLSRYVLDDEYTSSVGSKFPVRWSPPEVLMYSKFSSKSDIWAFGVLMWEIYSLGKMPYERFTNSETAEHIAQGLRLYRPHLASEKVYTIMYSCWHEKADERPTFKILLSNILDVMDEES

As usually defined, the Ki is a measure of affinity in units of concentration, obtained from inhibition or displacement. As for `Cc1ccc(F)cc1Nc1nc2ccc3c(C)c(C=CC(=O)N4CCP(=O)(c5ccccc5)CC4)[nH]c(=O)c3c2n1C` [Compound 7, 2-(3-fluoro-6-methylphenylamino)-1,6-dimethyl-7-{2-[(4-oxo-4-phenyl-4λ^5-[1,4]azaphosphinan-1-yl)-carbonyl]ethenyl}-1,8-dihydro-imidazo[4,5-h]isoquinolin-9-one], the Ki lay within 100 to 1000 nM.

`Cc1cc(F)ccc1Nc1nc2ccc3c(C)c(/C=C/CN4CCN(c5ccc(F)cc5)CC4)[nH]c(=O)c3c2n1C` [Compound 30, 2-(4-fluoro-2-methylphenylamino)-1,6-dimethyl-7-[3-(N-(4-fluorophenyl)-piperazin-1-yl)-propenyl]-1,8-dihydro-imidazo[4,5-h]isoquinolin-9-one]: the inhibition constant Ki was below 100 nM.

As to `Cc1c(/C=C/CN2CCP(=O)(c3ccccc3)CC2)[nH]c(=O)c2c1ccc1nc(Nc3c(Cl)cccc3Cl)n(C)c12` [Compound 5, 2-(2,6-dichlorophenylamino)-1,6-dimethyl-7-[3-(4-oxo-4-phenyl-4λ^5-[1,4]azaphosphinan-1-yl)-propenyl]-1,8-dihydro-imidazo[4,5-h]isoquinolin-9-one], the Ki is below 100 nM.

For `Cc1ccc(F)cc1Nc1nc2ccc3c(C)c(C=CCN4CCP(=O)(c5ccccc5)CC4)[nH]c(=O)c3c2n1C` [Compound 4, 2-(3-fluoro-6-methylphenylamino)-1,6-dimethyl-7-[3-(4-oxo-4-phenyl-4λ^5-[1,4]azaphosphinan-1-yl)-propenyl]-1,8-dihydro-imidazo[4,5-h]isoquinolin-9-one], the Ki was below 100 nM.

For the molecule `COc1ccc(P2(=O)CCN(CC=Cc3[nH]c(=O)c4c(ccc5nc(Nc6cc(F)ccc6C)n(C)c54)c3C)CC2)cc1` [Compound 11, 2-(3-fluoro-6-methylphenylamino)-1,6-dimethyl-7-[3-(4-oxo-4-(4-methoxyphenyl)-4λ^5-[1,4]azaphosphinan-1-yl)-propenyl]-1,8-dihydro-imidazo[4,5-h]isoquinolin-9-one], the inhibition constant (Ki) was below 100 nM.

For `Cc1c(C=CS(=O)(=O)c2ccccc2)[nH]c(=O)c2c1ccc1nc(Nc3c(Cl)cccc3Cl)n(C)c12` [Compound 37, 2-(2,6-dichlorophenylamino)-1,6-dimethyl-7-[2-(phenylsulfonyl)-ethenyl]-1,8-dihydro-imidazo[4,5-h]isoquinolin-9-one], the Ki was below 100 nM.

With `Cc1cc(F)ccc1Nc1nc2ccc3c(C)c(C=CCN4CCN(c5ccccc5)CC4)[nH]c(=O)c3c2n1C` [Compound 19, 2-(4-fluoro-2-methylphenylamino)-1,6-dimethyl-7-[3-(N-phenylpiperazin-1-yl)-propenyl]-1,8-dihydro-imidazo[4,5-h]isoquinolin-9-one], the Ki is below 100 nM.

Regarding `Cc1cc(Cl)cc(Cl)c1Nc1nc2ccc3c(C)c(C=CCN4CCP(=O)(c5ccccc5)CC4)[nH]c(=O)c3c2n1C` [Compound 6, 2-(2,4-dichloro-6-methylphenylamino)-1,6-dimethyl-7-[3-(4-oxo-4-phenyl-4λ^5-[1,4]azaphosphinan-1-yl)-propenyl]-1,8-dihydro-imidazo[4,5-h]isoquinolin-9-one], the inhibitory constant (Ki) was below 100 nM.

Take `Cc1cc(F)ccc1Nc1nc2ccc3c(C)c(C=CCN4CCN(S(=O)(=O)C(C)C)CC4)[nH]c(=O)c3c2n1C` [Compound 34, 2-(4-fluoro-2-methylphenylamino)-1,6-dimethyl-7-[3-(N-(isopropylsulfonyl)-piperazin-1-yl)-propenyl]-1,8-dihydro-imidazo[4,5-h]isoquinolin-9-one]: the Ki was below 100 nM.

For the molecule `Cc1cc(F)ccc1Nc1nc2ccc3c(C)c(C=CCN4CCN(C(=O)OC(C)(C)C)CC4)[nH]c(=O)c3c2n1C` [Compound 31, 2-(4-fluoro-2-methylphenylamino)-1,6-dimethyl-7-[3-(N-tert-butyloxycarbonylpiperazin-1-yl)-propenyl]-1,8-dihydro-imidazo[4,5-h]isoquinolin-9-one], the Ki was below 100 nM.

With `Cc1cc(F)ccc1Nc1nc2ccc3c(C)c(CCCN4CCP(=O)(c5ccccc5)CC4)[nH]c(=O)c3c2n1C` [Compound 9, 2-(4-fluoro-2-methylphenylamino)-1,6-dimethyl-7-[3-(4-oxo-4-phenyl-4λ^5-[1,4]azaphosphinan-1-yl)-propyl]-1,8-dihydro-imidazo[4,5-h]isoquinolin-9-one], the inhibitory constant (Ki) lay in the range of 100 to 1000 nM.

Consider `Cc1cc(F)ccc1Nc1nc2ccc3c(C)c(C=CCN4CCN(c5ccncc5)CC4)[nH]c(=O)c3c2n1C` [Compound 23, 2-(4-fluoro-2-methylphenylamino)-1,6-dimethyl-7-[3-(N-(pyridin-4-yl)-piperazin-1-yl)-propenyl]-1,8-dihydro-imidazo[4,5-h]isoquinolin-9-one], for which the Ki is below 100 nM.

Take `Cc1cc(F)ccc1Nc1nc2ccc3c(C)c(/C=C/CN4CCP(=O)(Cc5ccc(F)cc5)CC4)[nH]c(=O)c3c2n1C` [Compound 12, 2-(4-fluoro-2-methylphenylamino)-1,6-dimethyl-7-{3-[4-(4-fluorophenylmethyl)-4-oxo-4λ^5-[1,4]azaphosphinan-1-yl]-propenyl}-1,8-dihydro-imidazo[4,5-h]isoquinolin-9-one]: the Ki is below 100 nM.

`Cc1cc(F)ccc1Nc1nc2ccc3c(CC(=O)N4CCP(=O)(c5ccc(F)cc5)CC4)c(C)[nH]c(=O)c3c2n1C` [Compound 50, 2-(4-fluoro-2-methylphenylamino)-1,7-dimethyl-6-{2-[4-(4-fluorophenyl)-4-oxo-4λ^5[1,4]azaphosphinan-1-yl]-2-oxoethyl}-1,8-dihydro-imidazo[4,5-h]isoquinolin-9-one]: the Ki lay in the range of 100 to 1000 nM.

Turning to `Cc1c(C=NNC(=O)c2ccccn2)[nH]c(=O)c2c1ccc1nc(Nc3c(Cl)cccc3Cl)n(C)c12` [Compound 47, pyridine-2-carboxylic acid [2-(2,6-dichlorophenylamino)-1,6-dimethyl-9-oxo-8,9-dihydro-1H-imidazo[4,5-h]isoquinolin-7-ylmethylene]-hydrazide], the Ki is 100 to 1000 nM.

For `Cc1cc(F)ccc1Nc1nc2ccc3c(C)c(C=CCN4CCN(Cc5c(Cl)cccc5Cl)CC4)[nH]c(=O)c3c2n1C` [Compound 28, 2-(4-fluoro-2-methylphenylamino)-1,6-dimethyl-7-[3-(N-(2,6-dichlorophenylmethyl)-piperazin-1-yl)-propenyl]-1,8-dihydro-imidazo[4,5-h]isoquinolin-9-one], the Ki was below 100 nM.

As to `CC(=O)N1CCN(CC=Cc2[nH]c(=O)c3c(ccc4nc(Nc5ccc(F)cc5C)n(C)c43)c2C)CC1` [Compound 21, 2-(4-fluoro-2-methylphenylamino)-1,6-dimethyl-7-[3-(N-methylcarbonylpiperazin-1-yl)-propenyl]-1,8-dihydro-imidazo[4,5-h]isoquinolin-9-one], the inhibition constant Ki is below 100 nM.

`Cc1c(C=NNC(=O)c2ccccc2)[nH]c(=O)c2c1ccc1nc(Nc3c(Cl)cccc3Cl)n(C)c12` [Compound 45, benzoic acid [2-(2,6-dichlorophenylamino)-1,6-dimethyl-9-oxo-8,9-dihydro-1H-imidazo[4,5-h]isoquinolin-7-ylmethylene]-hydrazide]: the inhibition constant Ki fell in the range of 100 to 1000 nM.

As to `Cc1cc(F)ccc1Nc1nc2ccc3c(C)c(/C=C/CN4CCP(=O)(C5CC5)CC4)[nH]c(=O)c3c2n1C` [Compound 14, 2-(4-fluoro-2-methylphenylamino)-1,6-dimethyl-7-{3-[4-(cyclopropyl)-4-oxo-4λ^5-[1,4]azaphosphinan-1-yl]-propenyl}-1,8-dihydro-imidazo[4,5-h]isoquinolin-9-one], the Ki is below 100 nM.

In the case of `Cc1cc(F)ccc1Nc1nc2ccc3c(C)c(C=CCN4CCN(S(=O)(=O)N(C)C)CC4)[nH]c(=O)c3c2n1C` [Compound 32, 2-(4-fluoro-2-methylphenylamino)-1,6-dimethyl-7-[3-(N—(N,N-dimethylaminosulfonyl)-piperazin-1-yl)-propenyl]-1,8-dihydro-imidazo[4,5-h]isoquinolin-9-one], the Ki is below 100 nM.

Turning to `Cc1c(C=NNC(=O)c2ccc(N(C)C)cc2)[nH]c(=O)c2c1ccc1nc(Nc3c(Cl)cccc3Cl)n(C)c12` [Compound 46, 4-(N,N-dimethylamino)-benzoic acid [2-(2,6-dichlorophenylamino)-1,6-dimethyl-9-oxo-8,9-dihydro-1H-imidazo[4,5-h]isoquinolin-7-ylmethylene]-hydrazide], the inhibition constant (Ki) was above 1000 nM.

On to `CCC(=O)N1CCN(CC=Cc2[nH]c(=O)c3c(ccc4nc(Nc5ccc(F)cc5C)n(C)c43)c2C)CC1` [Compound 33, 2-(4-fluoro-2-methylphenylamino)-1,6-dimethyl-7-[3-(N-ethylcarbonylpiperazin-1-yl)-propenyl]-1,8-dihydro-imidazo[4,5-h]isoquinolin-9-one], for which the Ki was below 100 nM.
